Test results reported in ChEMBL document CHEMBL4406807, “Discovery of 3,4,6-Trisubstituted Piperidine Derivatives as Orally Active, Low hERG Blocking Akt Inhibitors via Conformational Restriction and Structure-Based Design” (J Med Chem, 2019).

What was measured:
OVCAR-8 = assay: Antiproliferative activity against human OVCAR8 cells; type: functional, cell-based
[1] = target: RAC-alpha serine/threonine-protein kinase (Homo sapiens, UniProt P31749)
Description: Inhibition of human Akt1 expressed in Escherichia coli using STK Substrate 2-biotin as substrate incubated for 1 hr by HTRF assay

HCT-116 = assay: cells; conditions: Homo sapiens, HCT-116, 72 h
LNCaP = assay: Antiproliferative activity against human LNCAP cells; type: functional, cell-based
hERG (KCNH2) = hERG (KCNH2) (Homo sapiens, UniProt Q12809); assay: Inhibition of ERG in human HEK293 cells at 3 uM at -80 mV holding potential by whole-cell patch clamp assay relative to control; type: cell-based; conditions: HEK293 cells expressing ERG
Sequence of hERG (KCNH2) (Q12809 whole entry): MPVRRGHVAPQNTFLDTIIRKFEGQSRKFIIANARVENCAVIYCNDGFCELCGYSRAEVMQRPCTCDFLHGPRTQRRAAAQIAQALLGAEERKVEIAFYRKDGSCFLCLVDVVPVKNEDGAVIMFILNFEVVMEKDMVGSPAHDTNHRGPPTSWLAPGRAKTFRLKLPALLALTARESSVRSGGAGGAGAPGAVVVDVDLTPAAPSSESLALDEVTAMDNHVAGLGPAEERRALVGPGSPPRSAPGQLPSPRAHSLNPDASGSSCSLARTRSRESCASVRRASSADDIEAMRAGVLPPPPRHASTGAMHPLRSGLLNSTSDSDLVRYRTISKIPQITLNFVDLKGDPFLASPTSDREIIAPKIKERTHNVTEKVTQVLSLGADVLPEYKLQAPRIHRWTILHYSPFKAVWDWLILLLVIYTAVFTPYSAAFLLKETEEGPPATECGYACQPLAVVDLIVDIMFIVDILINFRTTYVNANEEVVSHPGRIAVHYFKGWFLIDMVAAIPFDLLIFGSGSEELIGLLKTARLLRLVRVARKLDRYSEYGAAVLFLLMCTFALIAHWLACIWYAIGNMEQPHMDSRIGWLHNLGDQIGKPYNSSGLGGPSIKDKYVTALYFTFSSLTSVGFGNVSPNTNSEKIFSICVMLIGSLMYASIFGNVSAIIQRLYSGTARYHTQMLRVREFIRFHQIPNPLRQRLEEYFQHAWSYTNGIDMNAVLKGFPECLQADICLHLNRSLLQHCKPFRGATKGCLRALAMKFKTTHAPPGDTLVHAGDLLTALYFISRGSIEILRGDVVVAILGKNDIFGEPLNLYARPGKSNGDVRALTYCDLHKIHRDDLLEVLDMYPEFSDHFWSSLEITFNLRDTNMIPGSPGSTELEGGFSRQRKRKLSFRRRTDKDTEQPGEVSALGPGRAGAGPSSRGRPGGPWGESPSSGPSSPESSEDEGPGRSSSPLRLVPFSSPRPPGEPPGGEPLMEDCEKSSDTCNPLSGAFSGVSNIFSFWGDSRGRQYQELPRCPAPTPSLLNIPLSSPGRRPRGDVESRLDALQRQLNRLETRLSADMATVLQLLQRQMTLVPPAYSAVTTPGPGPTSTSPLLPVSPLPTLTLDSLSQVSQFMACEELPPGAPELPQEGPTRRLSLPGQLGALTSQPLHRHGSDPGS

Sequence of RAC-alpha serine/threonine-protein kinase (P31749 whole entry): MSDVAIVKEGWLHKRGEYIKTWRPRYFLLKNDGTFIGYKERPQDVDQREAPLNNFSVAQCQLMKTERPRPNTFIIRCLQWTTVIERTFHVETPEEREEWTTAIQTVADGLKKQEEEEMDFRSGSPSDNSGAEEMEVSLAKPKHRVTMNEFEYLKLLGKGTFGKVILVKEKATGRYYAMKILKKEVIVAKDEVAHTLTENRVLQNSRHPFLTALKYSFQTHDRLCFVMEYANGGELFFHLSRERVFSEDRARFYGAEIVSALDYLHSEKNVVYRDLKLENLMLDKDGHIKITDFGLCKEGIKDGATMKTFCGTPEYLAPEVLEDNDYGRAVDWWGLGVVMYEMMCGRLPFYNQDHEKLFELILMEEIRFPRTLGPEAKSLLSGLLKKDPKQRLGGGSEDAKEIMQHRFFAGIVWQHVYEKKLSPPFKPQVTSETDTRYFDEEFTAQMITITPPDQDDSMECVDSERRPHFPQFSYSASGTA

Row | Compound | IC50 (OVCAR-8) | IC50 [1] | IC50 (HCT-116) | IC50 (LNCaP) | inhibition at 3 µM (hERG (KCNH2))
1 | CC(=O)OCC[C@@H]1C[C@@H](c2ccc(F)c(F)c2)[C@H](NC(=O)c2cc(-c3c(Cl)cnn3C)c(Cl)o2)CN1 | 4960 nM | 3.4 nM | 690 nM | – | –
2 | Cn1ncc(Cl)c1-c1cc(C(=O)N[C@H]2CNCC[C@@H]2c2ccc(F)c(F)c2)oc1Cl | 490 nM | 51.2 nM | 1090 nM | – | –
3 | Cn1ncc(Cl)c1-c1cc(C(=O)NC2CNCCC2c2ccc(C(F)(F)F)cc2)oc1Cl (stereo not given) | – | 7.2 nM | – | – | –
4 | O=C(N[C@@H]1CNCC[C@H]1c1ccc(Cl)cc1)c1ccc(-c2cn[nH]c2)o1 | 5000 nM | 50.3 nM | 21800 nM | – | –
5 | Cn1ncc(Cl)c1-c1cc(C(=O)N[C@@H]2CNCC[C@H]2c2ccc(Cl)cc2)sc1Cl | 2510 nM | 449 nM | 2440 nM | – | –
6 | Cn1ncc(Br)c1-c1ccc(C(=O)N[C@@H]2CNCC[C@H]2c2cccc(F)c2)nc1 | 1920 nM | 182 nM | 6250 nM | – | –
7 | Cn1nccc1-c1oc(C(=O)N[C@@H]2CNCC[C@H]2c2ccc(Cl)cc2)cc1Br | 15000 nM | 162 nM | 13700 nM | – | –
8 | Cn1ncc(Cl)c1-c1cc(C(=O)N[C@@H]2CN[C@H](CCN3CCCC3)C[C@H]2c2ccc(Cl)c(Cl)c2)oc1Cl | 1840 nM | 6.41 nM | 1940 nM | 1920 nM | –
9 | Cn1ncc(Cl)c1-c1cc(C(=O)N[C@@H]2CNCC[C@@H]2c2ccc(F)c(F)c2)oc1Cl | – | 2.5 nM | – | – | –
10 | Cn1ncc(Cl)c1-c1cc(C(=O)N[C@@H]2CN[C@H](CC(=O)NCCO)C[C@H]2c2ccc(Cl)c(Cl)c2)oc1Cl | 1450 nM | 1.41 nM | 670 nM | 40 nM | 6.7%
11 | Cn1ncc(Cl)c1-c1cc(C(=O)N[C@@H]2CNCC[C@H]2c2ccc(Cl)cc2)oc1Cl | 1320 nM | 17.3 nM | 1870 nM | – | –
12 | Cn1ncc(Br)c1-c1cc(C(=O)N[C@@H]2CNCC[C@H]2c2ccc(Cl)cc2)n(C)c1Br | 4920 nM | 199 nM | 7420 nM | – | –
13 | Cn1ncc(Cl)c1-c1cc(C(=O)N[C@@H]2CN[C@H](CC(O)CO)C[C@H]2c2ccc(F)c(F)c2)oc1Cl (stereo not given in full) | 690 nM | 3.31 nM | 800 nM | 100 nM | 4.7%
14 | COCC[C@@H]1C[C@@H](c2ccc(Cl)c(Cl)c2)[C@H](NC(=O)c2cc(-c3c(Cl)cnn3C)c(Cl)o2)CN1 | 1060 nM | 7.01 nM | 470 nM | 250 nM | –
15 | Cn1ncc(Cl)c1-c1ccc(C(=O)N[C@@H]2CNCC[C@H]2c2ccc(F)c(F)c2)cc1 | 2180 nM | 27.3 nM | 9880 nM | – | –
16 | Cn1ncc(Br)c1-c1ccc(C(=O)N[C@@H]2CNCC[C@H]2c2ccc(Cl)cc2)o1 | 3680 nM | 31.2 nM | 3760 nM | – | –
17 | Cn1ncc(Cl)c1-c1cc(C(=O)N[C@@H]2CNCC[C@H]2c2ccc(F)c(F)c2)sc1Cl | 3510 nM | 222 nM | 2810 nM | – | –
18 | Cn1ncc(Cl)c1-c1oc(C(=O)N[C@@H]2CNCC[C@H]2c2ccc(Cl)cc2)cc1Br | 6050 nM | 40 nM | 11700 nM | – | –
19 | Cn1ncc(Cl)c1-c1cc(C(=O)N[C@@H]2CNCC[C@H]2c2cccc(C(F)(F)F)c2)oc1Cl | 120 nM | 8 nM | 390 nM | – | –
20 | Cn1cc(-c2coc(C(=O)N[C@@H]3CNCC[C@H]3c3ccc(Cl)cc3)c2)cn1 | 10000 nM | > 1000 nM | 23600 nM | – | –
21 | Cn1ncc(Br)c1-c1ccc(C(=O)N[C@@H]2CNCC[C@H]2c2ccc(F)c(F)c2)cn1 | 6150 nM | 270 nM | 26900 nM | – | –
22 | Cn1cc(-c2c(Br)cnn2C)cc1C(=O)N[C@@H]1CNCC[C@H]1c1ccc(Cl)cc1 | 3030 nM | 255 nM | 8700 nM | – | 63.8%
23 | Cn1ncc(Cl)c1-c1cc(C(=O)N[C@@H]2CNCC[C@H]2c2ccc(C(F)(F)F)cc2)oc1Cl | 120 nM | 9.3 nM | 280 nM | – | –
24 | Cn1ncc(Cl)c1-c1cc(C(=O)N[C@@H]2CN[C@H](CC(=O)NCC(O)CO)C[C@H]2c2ccc(Cl)c(Cl)c2)oc1Cl (stereo not given in full) | 5900 nM | 3.13 nM | 7090 nM | 660 nM | –
25 | Cn1ncc(Cl)c1-c1ccc(C(=O)N[C@@H]2CNCC[C@H]2c2cccc(F)c2)cc1 | 5820 nM | 72.3 nM | – | – | 10.7%
26 | Cn1ncc(Br)c1-c1coc(C(=O)NC2CNCC2c2ccc(F)c(F)c2)c1 (racemic) | – | 3650 nM | – | – | –
27 | Cn1ncc(Cl)c1-c1cc(C(=O)NC2CNCCC2c2ccc(F)c(F)c2)oc1Cl (racemic) | – | 6.4 nM | – | – | –
28 | Cn1ncc(Cl)c1-c1coc(C(=O)NC2CNCC2c2ccc(F)c(F)c2)c1 (racemic) | – | 1570 nM | – | – | –
29 | Cn1nccc1-c1coc(C(=O)NC2CNCCC2c2ccc(F)c(F)c2)c1 (racemic) | – | 191 nM | – | – | –
30 | NC1(C(=O)N[C@@H](CCO)c2ccc(Cl)cc2)CCN(c2nc[nH]c3nccc2-3)CC1 [CAPIVASERTIB] | – | – | 5200 nM | 178 nM | –
